Here are results for 25 compounds from patent publication US10000512B2, “Compounds for the treatment of infectious diseases” (Hoffmann-La Roche Inc., priority 2014, dated 2018).

Assay [1] concerns the target T1, human TLR7 (Homo sapiens, UniProt Q9NYK1).
T1 sequence (Q9NYK1 27-1049): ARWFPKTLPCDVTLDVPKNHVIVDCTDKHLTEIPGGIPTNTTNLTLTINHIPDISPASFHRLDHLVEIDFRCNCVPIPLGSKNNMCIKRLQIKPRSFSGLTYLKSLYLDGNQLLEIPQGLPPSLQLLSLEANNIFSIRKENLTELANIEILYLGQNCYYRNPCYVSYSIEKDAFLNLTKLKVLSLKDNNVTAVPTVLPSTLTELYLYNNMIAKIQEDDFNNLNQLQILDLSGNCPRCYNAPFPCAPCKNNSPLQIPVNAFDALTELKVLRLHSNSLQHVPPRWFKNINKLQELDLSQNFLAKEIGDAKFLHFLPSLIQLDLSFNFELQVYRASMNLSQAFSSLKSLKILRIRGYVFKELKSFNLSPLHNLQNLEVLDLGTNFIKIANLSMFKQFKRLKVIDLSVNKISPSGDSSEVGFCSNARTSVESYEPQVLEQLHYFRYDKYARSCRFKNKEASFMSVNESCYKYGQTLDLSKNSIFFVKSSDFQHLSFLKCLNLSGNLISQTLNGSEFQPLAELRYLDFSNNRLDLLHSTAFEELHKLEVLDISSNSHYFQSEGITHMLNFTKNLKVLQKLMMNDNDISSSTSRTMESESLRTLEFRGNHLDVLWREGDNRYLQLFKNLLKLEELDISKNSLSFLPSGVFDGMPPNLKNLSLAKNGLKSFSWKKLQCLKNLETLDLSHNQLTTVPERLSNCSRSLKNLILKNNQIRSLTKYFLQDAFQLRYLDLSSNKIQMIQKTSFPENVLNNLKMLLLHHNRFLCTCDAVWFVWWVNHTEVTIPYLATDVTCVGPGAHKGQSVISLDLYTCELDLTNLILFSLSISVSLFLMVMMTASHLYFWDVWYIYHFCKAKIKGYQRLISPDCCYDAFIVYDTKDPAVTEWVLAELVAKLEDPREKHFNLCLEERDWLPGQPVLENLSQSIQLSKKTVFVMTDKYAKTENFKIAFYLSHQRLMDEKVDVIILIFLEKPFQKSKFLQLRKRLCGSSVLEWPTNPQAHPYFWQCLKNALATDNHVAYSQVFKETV
The assay is described as follows: HEK293-Blue-hTLR-7 cells assay (SEAP reporter). The class given is cell-based. To be noted: 20 hours incubation. The text has this:
A stable HEK293-Blue-hTLR-7 cell line was purchased from InvivoGen (Cat.#: hkb-ht1r7, San Diego, Calif., USA). These cells were designed for studying the stimulation of human TLR7 by monitoring the activation of NF-κB. A SEAP (secreted embryonic alkaline phosphatase) reporter gene was placed under the control of the IFN-β minimal promoter fused to five NF-κB and AP-1-binding sites. The SEAP was induced by activating NF-κB and AP-1 via stimulating HEK-Blue hTLR7 cells with TLR7 ligands. Therefore the reporter expression was regulated by the NF-κB promoter upon stimulation of human TLR7 for 20 hours. The cell culture supernatant SEAP reporter activity was determined using QUANTI-Blue™ kit (Cat.#: rep-qb1, Invivogen, San Diego, Calif., USA) at a wavelength of 640 nm, a detection medium that turns purple/blue in the presence of alkaline phosphatase.
HEK293-Blue-hTLR7 cells were incubated at a density of 250,000˜450,000 cells/mL in a volume of 180 μL in a 96-well plate in Dulbecco's Modified Eagle's medium (DMEM) containing 4.5 g/L glucose, 50 U/mL penicillin, […] streptomycin, […] Normocin, 2 mM L-glutamine, 10% (v/v) heat-inactivated fetal bovine serum for 24 h. Then the HEK293-Blue-hTLR-7 cells were incubated with addition of 20 μL test compound in a serial dilution in the presence of final DMSO at 1% and perform incubation under 37° C. in a CO2 incubator for 20 hours. Then 20 μL of the supernatant from each well was incubated with 180 μL Quanti-blue substrate solution at 37° C. for 2 h and the absorbance was read at 620˜655 nm using a spectrophotometer. The signalling pathway that TLR7 activation leads to downstream NF-κB activation has been widely accepted, and therefore similar reporter assay was also widely used for evaluating TLR7 agonist (Tsuneyasu Kaisho and Takashi Tanaka, Trends in Immunology, Volume 29, Issue 7, July 2008, […]; Hiroaki Hemmi et al, Nature Immunology 3, 196-200 (2002).

The subject of assay [2] is AAV-HBV. In words: In vivo antiviral efficacy in AAV-HBV mouse model. More on the design: species or system C57BL/6 mice. Particulars: mouse serum. The procedure:
Example 6-A was evaluated for its in vivo antiviral efficacy using an AAV-HBV mouse model. This mouse model for HBV infection was generated by injecting C57BL/6 mice with a recombinant adeno-associated virus (AAV) carrying a replicable HBV (hepatitis B virus) genome (AAV-HBV). In 3 weeks post infection, high levels of HBV viral markers, such as HBV genomic DNA and HBsAg (HBV surface antigen), was detected in the sera of infected mice. With persistent HBV viremia and fully competent immune system, the AAV-HBV model is suitable for investigating the in vivo efficacy of Example 6-A.
To establish the AAV-HBV model, a total of fifteen 4-week old male C57BL/6 mice, specific pathogen free, were purchased from Shanghai Laboratory Animal Center of Chinese Academy of Sciences (SLAC) and housed in an animal care facility in individually ventilated cages under controlled temperature and light conditions following the Institutional Animal Care guidelines. AAV-HBV virus stock was available from Beijing FivePlus Molecular Medicine Institute (Beijing, China). C57BL/6 mice were injected with 200 μL of recombinant virus in saline buffer through tail vein injection. The mice were bled on day 14 post injection to monitor HBsAg, HBeAg, and HBV genomic DNA in serum. On day 29 post injection, the fifteen mice were randomly recruited into 3 groups based on their HBV biomarker levels, and started to receive treatments, as shown in Table 3.
Mice in group 1 were treated with vehicle placebo (2% Klucel LF, 0.1% Polysorbate 80, and 0.1% Parabens in water); mice in group 2 and 3 were treated with Example 6-A at 30 mg/kg and 100 mg/kg respectively, every other day (QOD). All the mice were orally dosed for a total of 6 weeks. Serum samples were collected twice a week to monitor HBV biomarkers. Serum HBsAg was measured using CLIA kits (Autobio Diagnostics Co., Ltd, Zhengzhou, China) according to the manufacturer's instructions. The lower limit of detection for HBsAg was 0.1 ng/mL. Serum dilution of 500-fold (for HBsAg) was used to obtain values within the linear range of the standard curve. Serum HBV DNA was extracted using a MagNA Pure 96 DNA and Viral NA Small Volume Kit (Roche) following the manufacturer's instructions. The DNA samples were analyzed by real-time quantitative PCR (qPCR) using a HBV-specific primer and probe set for specific amplification and detection of a 128 bp HBV genome region from the nucleotide 2969 to 3096.

Where [3] appears, read: 30 mg/kg PO QOD, after the 6-week treatment.
Setting [4] is: 100 mg/kg PO QOD, at the end of the treatment (6 weeks).

The term EC50 denotes the concentration that produces a half-maximal response. Read a low EC50 as an effect from little substance.

In the case of `Nc1nc2c(sc(=O)n2[C@H]2CS[C@@H](C(O)C3CC3)O2)c(=O)[nH]1` (single isomer, unassigned) [Example 4-B], in assay [1], the EC50 worked out at 306 µM.

As for `CC(=O)OC(C1CC1)[C@H]1O[C@@H](n2c(=O)sc3cnc(N)nc32)CS1` (single isomer, unassigned) [Example 6-A], in assay [2] (setting [3]), the “reduction in HBV DNA” value is on record as “more than 2 log” and the “reduction in HBsAg” value was found to be 0.8 log. For the same compound, in assay [2] (setting [4]), the “reduction in HBV DNA” value was “more than 3 log” and the “reduction in HBsAg” value amounted to 2.4 log.

`CC(=O)OC(C1CC1)[C@H]1O[C@@H](n2c(=O)sc3c(=O)[nH]c(N)nc32)CS1` (single isomer, unassigned) [Example 7-A] yielded an EC50 in assay [1] of 61.7 µM.

In turn, `CCC(O)[C@H]1O[C@@H](n2c(=O)sc3c(=O)[nH]c(N)nc32)CS1` (single isomer, unassigned) [Example 8-A] yielded an EC50 in assay [1] of 16.5 µM.

Take `CCCC(O)[C@H]1O[C@@H](n2c(=O)sc3c(=O)[nH]c(N)nc32)CS1` (single isomer, unassigned) [Example 9-A]: in assay [1], the EC50 was determined as 10 µM.

In turn, `CCCC(O)[C@H]1O[C@@H](n2c(=O)sc3c(=O)[nH]c(N)nc32)CS1` (single isomer, unassigned) [Example 9-B] registered an EC50 in assay [1] of 160 µM.

With `CC#CC(O)[C@H]1O[C@@H](n2c(=O)sc3c(=O)[nH]c(N)nc32)CS1` (single isomer, unassigned) [Example 10-A], the EC50 in assay [1] came out at 7.6 µM.

For `CC#CC(O)[C@H]1O[C@@H](n2c(=O)sc3c(=O)[nH]c(N)nc32)CS1` (single isomer, unassigned) [Example 10-B], it took 122 µM to reach a half-maximal effect in assay [1] (EC50).

The compound `CC#CC(OC(C)=O)[C@H]1O[C@@H](n2c(=O)sc3c(=O)[nH]c(N)nc32)CS1` (single isomer, unassigned) [Example 13-A] yielded a 50% effective concentration (EC50) in assay [1] of 151 µM.

`Nc1nc2c(sc(=O)n2[C@H]2CS[C@@H](C(O)C#CC3CC3)O2)c(=O)[nH]1` (single isomer, unassigned) [Example 14-A] displayed an EC50 in assay [1] of 54.3 µM.

For the compound `C#CC(O)[C@H]1O[C@@H](n2c(=O)sc3c(=O)[nH]c(N)nc32)CS1` (single isomer, unassigned) [Example 15-A], the response in assay [1] was half-maximal at 16.7 µM (EC50).

Compound `CC(O)[C@H]1O[C@@H](n2c(=O)sc3c(=O)[nH]c(N)nc32)CS1` (single isomer, unassigned) [Example 16-A] came in with an EC50 in assay [1] of 46.5 µM.

For the compound `CC(C)CC(O)[C@H]1O[C@@H](n2c(=O)sc3c(=O)[nH]c(N)nc32)CS1` (single isomer, unassigned) [Example 17-A], in assay [1], the EC50 amounted to 63.3 µM.

Take `CC(C)CC(O)[C@H]1O[C@@H](n2c(=O)sc3c(=O)[nH]c(N)nc32)CS1` (single isomer, unassigned) [Example 17-B]: the EC50 in assay [1] came out at 93.6 µM.

As to `C=CCC(O)[C@H]1O[C@@H](n2c(=O)sc3c(=O)[nH]c(N)nc32)CS1` (single isomer, unassigned) [Example 18-A], it took 29 µM to reach a half-maximal effect in assay [1] (EC50).

On to `CCCCC(O)[C@H]1O[C@@H](n2c(=O)sc3c(=O)[nH]c(N)nc32)CS1` (single isomer, unassigned) [Example 19-A], for which the EC50 in assay [1] was 32.9 µM.

With `Nc1nc2c(sc(=O)n2[C@H]2CS[C@@H](C(O)c3cccs3)O2)c(=O)[nH]1` (single isomer, unassigned) [Example 20-A], a half-maximal effect in assay [1] (EC50) was put at 33.9 µM.

Turning to `C[C@@H]1S[C@@H](CO)OC1n1c(=O)sc2c(=O)[nH]c(N)nc21` (single isomer, unassigned) [Example 21-A], in assay [1], the EC50 is 53.9 µM.

`CC[C@H](O)C1OC(n2c(=O)sc3c(=O)[nH]c(N)nc32)[C@H](C)S1` (single isomer, unassigned) [Example 22-A] gave an EC50 in assay [1] of 4.7 µM.

In turn, `C[C@@H]1S[C@@H](C(O)C2CC2)OC1n1c(=O)sc2c(=O)[nH]c(N)nc21` (single isomer, unassigned) [Example 23-A] gave an EC50 in assay [1] of 4.5 µM.

The compound `C[C@@H]1S[C@@H](C(O)C2CC2)OC1n1c(=O)sc2c(=O)[nH]c(N)nc21` (single isomer, unassigned) [Example 23-B] showed an EC50 in assay [1] of 31.5 µM.

Take `CC#CC(O)C1OC(n2c(=O)sc3c(=O)[nH]c(N)nc32)[C@H](C)S1` (single isomer, unassigned) [Example 24-A]: in assay [1], the EC50 was 10.1 µM.

`C=CCC1SC(CO)OC1n1c(=O)sc2c(=O)[nH]c(N)nc21` (single isomer, unassigned) [Example 25-A, 3-[4-Allyl-2-(hydroxymethyl)-1,3-oxathiolan-5-yl]-5-amino-6H-thiazolo[4,5-d]pyrimidine-2,7-dione] returned an EC50 in assay [1] of 178 µM.

Turning to `Nc1nc2c(sc(=O)n2C2CSC(CO)O2)c(=O)[nH]1` (stereo not shown) [Example 1, 5-Amino-3-[2-(hydroxymethyl)-1,3-oxathiolan-5-yl]-6H-thiazolo[4,5-d] pyrimidine-2,7-dione], the EC50 in assay [1] was 97 µM.

In the case of `Nc1nc2c(sc(=O)n2[C@H]2CS[C@@H](CO)O2)c(=O)[nH]1` [Example 2-A, 5-amino-3-[(2S,5R)-2-(hydroxymethyl)-1,3-oxathiolan-5-yl]-6H-thiazolo[4,5-d]pyrimidine-2,7-dione], the EC50 in assay [1] amounted to 125 µM.
